The subject of one data set is ECa-109 cell line. Briefly: cells. As to conditions: Homo sapiens, ECa-109, 48 h.
The next data set relates to MGC-803. Briefly: cells. To be noted: Homo sapiens, MGC-803, 48 h.
The subject of the next data set is PC-3. Briefly: cells. As to conditions: Homo sapiens, PC-3, 48 h.
The next data set concerns B16-F10. Briefly: cells. To be noted: Mus musculus, B16-F10, 48 h.
Data set [1] concerns the target T1, Lysine-specific histone demethylase 1A (Homo sapiens, UniProt O60341).
The target in data set [2] is T1, Lysine-specific histone demethylase 1A. Briefly: Inhibition of LSD1 in human MGC803 assessed as reduction in H3K4me2 protein expression incubated for 24 hrs by Western blot analysis. As to conditions: MGC-803, dose 10-40 µM.
The target in the next data set is T2, MAO-A (Homo sapiens, UniProt P21397).
T2 sequence (P21397 whole entry): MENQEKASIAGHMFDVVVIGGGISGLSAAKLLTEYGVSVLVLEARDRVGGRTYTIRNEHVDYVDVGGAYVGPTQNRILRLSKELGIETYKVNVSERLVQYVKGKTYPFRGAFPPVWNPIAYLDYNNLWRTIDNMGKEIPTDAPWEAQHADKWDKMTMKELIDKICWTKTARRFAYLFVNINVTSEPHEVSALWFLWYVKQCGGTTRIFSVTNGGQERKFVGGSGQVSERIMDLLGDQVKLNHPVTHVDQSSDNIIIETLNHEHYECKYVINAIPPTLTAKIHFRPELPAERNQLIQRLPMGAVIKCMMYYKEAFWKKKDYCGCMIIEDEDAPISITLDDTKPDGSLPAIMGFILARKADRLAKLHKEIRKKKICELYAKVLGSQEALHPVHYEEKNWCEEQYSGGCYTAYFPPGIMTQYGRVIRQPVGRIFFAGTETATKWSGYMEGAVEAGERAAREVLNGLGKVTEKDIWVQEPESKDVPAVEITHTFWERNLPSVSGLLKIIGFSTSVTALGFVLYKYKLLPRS
Nature of the data set: Inhibition of MAO-A (unknown origin) at 20 uM relative to control.

In the next data set the target is T3, MAO-B (Homo sapiens, UniProt P27338).
T3 sequence (P27338 whole entry): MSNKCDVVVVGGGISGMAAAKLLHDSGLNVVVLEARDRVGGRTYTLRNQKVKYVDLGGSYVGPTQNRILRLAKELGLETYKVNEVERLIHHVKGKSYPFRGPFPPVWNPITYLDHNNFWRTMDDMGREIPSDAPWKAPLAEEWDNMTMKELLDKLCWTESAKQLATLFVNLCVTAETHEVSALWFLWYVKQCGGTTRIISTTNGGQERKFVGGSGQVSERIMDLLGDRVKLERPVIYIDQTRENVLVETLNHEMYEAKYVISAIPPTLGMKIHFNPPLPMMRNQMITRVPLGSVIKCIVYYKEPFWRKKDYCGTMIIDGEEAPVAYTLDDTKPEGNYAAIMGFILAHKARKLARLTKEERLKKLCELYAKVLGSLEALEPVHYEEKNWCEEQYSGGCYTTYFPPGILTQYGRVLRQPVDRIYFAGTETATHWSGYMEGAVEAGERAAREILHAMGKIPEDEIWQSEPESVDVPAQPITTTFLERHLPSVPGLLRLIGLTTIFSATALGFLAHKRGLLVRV
Briefly: Inhibition of MAO-B (unknown origin) at 20 uM relative to control.

The target in data set [3] is Cyclin-dependent kinase 1 (Homo sapiens) (UniProt P06493). Nature of the data set: Inhibition of CDK1 (unknown origin) at 20 uM relative to control.
Sequence of Cyclin-dependent kinase 1 (Homo sapiens) (P06493 whole entry, looked up): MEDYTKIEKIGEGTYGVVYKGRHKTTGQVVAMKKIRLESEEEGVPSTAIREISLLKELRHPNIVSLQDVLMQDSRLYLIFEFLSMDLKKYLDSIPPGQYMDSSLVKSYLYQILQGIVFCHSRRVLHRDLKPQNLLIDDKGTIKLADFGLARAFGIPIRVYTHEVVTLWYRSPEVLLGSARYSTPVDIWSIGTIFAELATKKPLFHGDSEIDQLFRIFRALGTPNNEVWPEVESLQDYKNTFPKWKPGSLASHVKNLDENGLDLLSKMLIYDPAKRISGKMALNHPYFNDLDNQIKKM
Data set [4] has as its target Cyclin-dependent kinase 2 (Homo sapiens) (UniProt P24941). Briefly: Inhibition of CDK2 (unknown origin) at 20 uM relative to control.
In data set [5] the target is Cyclin-dependent kinase 6 (Homo sapiens) (UniProt Q00534). Briefly: Inhibition of CDK6 (unknown origin) at 20 uM relative to control.
Sequence of Cyclin-dependent kinase 6 (Homo sapiens) (Q00534 whole entry): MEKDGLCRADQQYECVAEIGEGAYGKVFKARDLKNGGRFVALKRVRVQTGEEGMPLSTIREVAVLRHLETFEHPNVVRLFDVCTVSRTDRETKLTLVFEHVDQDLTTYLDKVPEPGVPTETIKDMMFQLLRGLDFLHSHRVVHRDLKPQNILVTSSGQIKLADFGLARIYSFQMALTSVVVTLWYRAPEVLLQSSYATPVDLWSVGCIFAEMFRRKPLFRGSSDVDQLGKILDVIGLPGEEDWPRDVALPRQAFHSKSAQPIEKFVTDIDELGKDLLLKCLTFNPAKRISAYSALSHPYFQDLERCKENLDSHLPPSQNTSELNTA
The target of data set [6] is Tyrosine-protein kinase BTK (Homo sapiens) (UniProt Q06187). Nature of the data set: Inhibition of BTK (unknown origin) at 20 uM relative to control.
Sequence of Tyrosine-protein kinase BTK (Homo sapiens) (Q06187 whole entry): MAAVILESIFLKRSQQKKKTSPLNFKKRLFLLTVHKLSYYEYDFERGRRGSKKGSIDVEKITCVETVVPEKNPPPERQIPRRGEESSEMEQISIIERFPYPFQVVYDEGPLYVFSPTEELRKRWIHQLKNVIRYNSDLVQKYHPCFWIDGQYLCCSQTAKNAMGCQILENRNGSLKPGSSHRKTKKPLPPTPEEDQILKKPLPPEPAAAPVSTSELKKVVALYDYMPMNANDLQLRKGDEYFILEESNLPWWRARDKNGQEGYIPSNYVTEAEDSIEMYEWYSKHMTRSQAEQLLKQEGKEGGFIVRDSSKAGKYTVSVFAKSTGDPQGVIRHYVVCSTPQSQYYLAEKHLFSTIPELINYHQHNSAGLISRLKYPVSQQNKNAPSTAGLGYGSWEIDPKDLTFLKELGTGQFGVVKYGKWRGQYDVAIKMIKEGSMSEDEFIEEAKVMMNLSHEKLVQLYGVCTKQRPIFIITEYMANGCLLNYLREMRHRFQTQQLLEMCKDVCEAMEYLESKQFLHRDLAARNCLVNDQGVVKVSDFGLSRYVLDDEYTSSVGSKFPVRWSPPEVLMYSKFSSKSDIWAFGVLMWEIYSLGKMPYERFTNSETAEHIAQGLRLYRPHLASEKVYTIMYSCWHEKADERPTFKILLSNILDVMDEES
Data set [7] has as its target T1, Lysine-specific histone demethylase 1A. Nature of the data set: biochemical.
Description: Inhibition of recombinant human LSD1 (157 to 852 residues) expressed in Escherichia coli BL21 (DE) cells using H3K4me2 substrate incubated for 30 mins by amplex red assay

Molecules are shown by their SMILES.

Usually IC50 stands for the point on the concentration scale where inhibition reaches its midpoint. Lower therefore signals inhibition by little substance. As usually defined, the inhibition is how much of the control response was suppressed.

Description for B16-F10: Cytotoxicity against mouse B16-F10 cells assessed as reduction in cell viability after 48 hrs by MTT assay
Description for ECa-109 cell line: Cytotoxicity against human EC-109 cells assessed as reduction in cell viability after 48 hrs by MTT assay
Description for MGC-803: Cytotoxicity against human MGC-803 cells assessed as reduction in cell viability after 48 hrs by MTT assay
Description for PC-3: Cytotoxicity against human PC-3 cells assessed as reduction in cell viability after 48 hrs by MTT assay

With `CCCSc1nc2c(nnn2CCNC(=S)Nc2ccc(OC)cc2)c(=O)[nH]1`, the IC50 is 19.7 µM with ECa-109 cell line, 20.7 µM in the data set with MGC-803, 15.6 µM with PC-3 and greater than 64 µM in the data set with B16-F10.
Take `CCCSc1nc2c(nnn2CCNC(=S)Nc2ccccc2Cl)c(=O)[nH]1`: the 50% inhibitory concentration (IC50) is greater than 64 µM in the data set with ECa-109 cell line, 26 µM in the data set on MGC-803, 23.4 µM with PC-3 and 14.2 µM in the data set with B16-F10.
Turning to `CCCSc1nc2c(nnn2CCNC(=S)NCc2ccccc2)c(=O)[nH]1`, the 50% inhibitory concentration (IC50) in the data set with ECa-109 cell line is greater than 64 µM; in the data set with MGC-803 it was 46.3 µM; with PC-3 it was 25.5 µM; with B16-F10 it was greater than 64 µM.
On to `CCCSc1nc2c(nnn2CCNC(=S)Nc2cccc3ccccc23)c(=O)[nH]1`, for which the Ratio IC50 in data set [1] was found to be 3. Also, the inhibition result was “Dose-dependent effect” in data set [2]; less than 10% in data set [3]; less than 10% in [4]; 20% in data set [5]; less than 10% in data set [6]. For the same compound, the inhibition at 20 µM amounted to 3.9% on MAO-A and 11.8% against MAO-B. In addition, the IC50 with ECa-109 cell line was 9.88 µM; in the data set with MGC-803, 8.3 µM; with PC-3, 9.15 µM; in the data set with B16-F10 it was 11.5 µM; in data set [7] it was 9.75 µM.

Source of the values: ChEMBL document CHEMBL4706492, “[1,2,3]Triazolo[4,5-d]pyrimidine derivatives incorporating (thio)urea moiety as a novel scaffold for LSD1 inhibitors” (Eur J Med Chem, 2020).
